From patent US11149036B2, “3-(1H-pyrazol-4-yl)pyridine allosteric modulators of the M4 muscarinic acetylcholine receptor” (Merck Sharp & Dohme Corp., priority 2017, dated 2021)

Biological target: T1, human M4 muscarinic acetylcholine receptor (Homo sapiens, UniProt P08173)
T1 construct: expressed in transfected cells; host or cells: CHO-K1
T1 sequence (P08173 1-479): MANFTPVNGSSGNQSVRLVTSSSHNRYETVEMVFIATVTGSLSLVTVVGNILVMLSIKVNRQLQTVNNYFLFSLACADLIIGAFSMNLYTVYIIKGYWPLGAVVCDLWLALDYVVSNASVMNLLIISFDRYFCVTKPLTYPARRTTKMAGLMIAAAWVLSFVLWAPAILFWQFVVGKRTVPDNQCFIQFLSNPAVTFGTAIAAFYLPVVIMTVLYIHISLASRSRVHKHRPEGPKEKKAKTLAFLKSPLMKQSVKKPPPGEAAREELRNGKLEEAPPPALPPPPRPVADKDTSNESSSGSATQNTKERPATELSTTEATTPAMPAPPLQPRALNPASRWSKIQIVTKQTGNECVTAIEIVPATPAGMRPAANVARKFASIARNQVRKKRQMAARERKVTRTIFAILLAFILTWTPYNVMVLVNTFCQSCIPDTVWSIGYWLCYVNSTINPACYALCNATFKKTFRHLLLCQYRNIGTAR
Experiment: human FLIPR-based M4 PAM assay (CHO-K1 cells with human M4 receptor and Gaqi5, calcium dye fluorescence)
Type: cell-based
Details: inflection point (IP) of dose response curve, acetylcholine added at 20% of maximum response, read-out: M4 FLIPPR Hu IP
How it was run: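 CHO-K1 cells stably expressing human M4 with chimeric Gaqi5, calcium-dye loaded ~1 h at 37° C; compound added at increasing concentrations 4 min before acetylcholine at an EC20 concentration (sometimes a further EC70 addition).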

Row | Structure (SMILES) | EC50
1 | Cc1nc2ccc(-c3nc(C#N)ccc3-c3cnn(CC4(F)CCCC4)c3)cn2n1 [Example 60, 5-(1-((1-fluorocyclopentyl)methyl)-1H-pyrazol-4-yl)-6-(2-methyl-[1,2,4]triazolo[1,5-a]pyridin-6-yl)picolinonitrile] | 110 nM
2 | Cc1nc2cc(-c3nc(C#N)ccc3-c3cnn(CC4(F)CCCC4)c3)ccn2n1 [Example 61, 5-(1-((1-fluorocyclopentyl)methyl)-1H-pyrazol-4-yl)-6-(2-methyl-[1,2,4]triazolo[1,5-a]pyridin-7-yl)picolinonitrile] | 37 nM
3 | N#Cc1ccc(-c2cnn(CC3(F)CCCC3)c2)c(-c2ccc3conc3c2)n1 [Example 62, 6-(benzo[c]isoxazol-6-yl)-5-(1-((1-fluorocyclopentyl)methyl)-1H-pyrazol-4-yl)picolinonitrile] | 62 nM
4 | Cc1nc2cc(-c3nc(C#N)ccc3-c3cnn(CC4(F)CCCC4)c3)cnc2n1C [Example 63, 6-(2,3-dimethyl-3H-imidazo[4,5-b]pyridin-6-yl)-5-(1-((1-fluorocyclopentyl)methyl)-1H-pyrazol-4-yl)picolinonitrile] | 63 nM
5 | COc1cc2ccc(-c3nc(C#N)ccc3-c3cnn(CC4(F)CCCC4)c3)cn2n1 [Example 64, 5-(1-((1-fluorocyclopentyl)methyl)-1H-pyrazol-4-yl)-6-(2-methoxypyrazolo[1,5-a]pyridin-6-yl)picolinonitrile] | 22 nM
6 | CCc1nc2cc(-c3nc(C#N)ccc3-c3cnn(CC4(F)CCCC4)c3)ccn2n1 [Example 65, 6-(2-ethyl-[1,2,4]triazolo[1,5-a]pyridin-7-yl)-5-(1-((1-fluorocyclopentyl)methyl)-1H-pyrazol-4-yl)picolinonitrile] | 28 nM
7 | N#Cc1ccc(-c2cnn(CC3(F)CCCC3)c2)c(-c2ccn3nc(CO)nc3c2)n1 [Example 66, 5-(1-((1-fluorocyclopentyl)methyl)-1H-pyrazol-4-yl)-6-(2-(hydroxymethyl)-[1,2,4]triazolo[1,5-a]pyridin-7-yl)picolinonitrile] | 89 nM

Second part, the compound after the results:

Row | EC50 | Structure (SMILES)
8 | 43 nM | Cc1nc2cc(-c3nc(C#N)ccc3-c3cnn(CC4(F)CCCC4)c3)ccc2n1C [Example 59, 6-(1,2-dimethyl-1H-benzo[d]imidazol-5-yl)-5-(1-((1-fluorocyclopentyl)methyl)-1H-pyrazol-4-yl)picolinonitrile]
9 | 64 nM | COc1cc2ccc(-c3nc(C#N)ccc3-c3cnn(C[C@H]4CC[C@H](F)C4)c3)cc2nn1 [Example 67, 5-(1-(((1S,3S)-3-fluorocyclopentyl)methyl)-1H-pyrazol-4-yl)-6-(3-methoxycinnolin-7-yl)picolinonitrile]
10 | 38 nM | N#Cc1ccc(-c2cnn(C[C@H]3CC[C@H](F)C3)c2)c(-c2ccc3cccnc3c2)n1 [Example 68, 5-(1-(((1S,3S)-3-fluorocyclopentyl)methyl)-1H-pyrazol-4-yl)-6-(quinolin-7-yl)picolinonitrile]
11 | 25 nM | Cc1cn2ccc(-c3nc(C#N)ccc3-c3cnn(C[C@H]4CC[C@H](F)C4)c3)cc2n1 [Example 69, 5-(1-(((1S,3S)-3-fluorocyclopentyl)methyl)-1H-pyrazol-4-yl)-6-(2-methylimidazo[1,2-a]pyridin-7-yl)picolinonitrile]
12 | 49 nM | Cn1cnc2cc(-c3nc(C#N)ccc3-c3cnn(C[C@@H]4CC[C@@H](F)C4)c3)ccc21 [Example 70, 5-(1-(((1R,3R)-3-fluorocyclopentyl)methyl)-1H-pyrazol-4-yl)-6-(1-methyl-1H-benzo[d]imidazol-5-yl)picolinonitrile]
13 | 26 nM | N#Cc1ccc(-c2cnn(CC3C[C@H](F)[C@@H](F)C3)c2)c(-c2ccn3ccnc3c2)n1 [Example 71, 5-(1-(((3S,4S)-3,4-difluorocyclopentyl)methyl)-1H-pyrazol-4-yl)-6-(imidazo[1,2-a]pyridin-7-yl)picolinonitrile]
14 | 41 nM | Cn1cnc2cc(-c3nc(C#N)ccc3-c3cnn(CC4C[C@H](F)[C@@H](F)C4)c3)ccc21 [Example 72, 5-(1-(((3S,4S)-3,4-difluorocyclopentyl)methyl)-1H-pyrazol-4-yl)-6-(1-methyl-1H-benzo[d]imidazol-5-yl)picolinonitrile]
